Measurements published in patent US20240400521A1, “QUINAZOLINE COMPOUND, COMPOSITION, AND APPLICATION THEREOF” (BEIJING SCITECH-MQ PHARMACEUTICALS LIMITED, priority 2021, published 2024).

Legend:
HCC-827 cells = assay: Inhibition of cell proliferation, CTG method, HCC-827; format: cell-based; conditions: Homo sapiens, HCC827, 72 hours
From the text: The present application examined the in vitro anti-proliferative activity of the compounds of the present disclosure against in vitro cultured HCC-827, Ba/F3-EGFR-VIII and Ba/F3 EGFR D770_N771insSVD cell lines by CTG method.
Reagents and consumables: RPMI1640 (ThermoFisher, Cat. No. C11875500BT); DMEM (ThermoFisher, C11995500BT); fetal bovine serum (Hyclone, Cat. No. SV30087.03); 0.25% trypsin-EDTA (ThermoFisher, Cat. No. 25200072); penicillin-streptomycin (Hyclone, Cat. No. SV30010); DMSO (Life Science, Cat. No. 0231-500ML); CTG assay kit (Promega, Cat. No. G9243); 96-well plate (Corning, Cat. No. 3599); multifunctional plate reader (Perkin Elmer, Cat. No. Envision)
Cell lines: HCC-827 (from ATCC), Ba/F3-EGFR-VIII and Ba/F3 EGFR D770_N771insSVD (all from KYinno Biotechnology (Beijing) Co., Ltd.); all of the above cells were cultured with RPMI1640 medium containing 10% fetal bovine serum, 100 U/mL penicillin, and 100 μg/mL streptomycin in the culture process, and HCC-827 was cultured with DMEM medium containing 10% fetal bovine serum, 100 U/mL penicillin, and 100 μg/mL streptomycin.
• 1. The assay compound was dissolved with DMSO to form a stock solution and a gradient dilution was performed, followed by dilution with the corresponding medium to obtain a solution with 5-fold working concentration. • 2. Cells in logarithmic growth phase were adjusted to specific cell densities by dilution with culture medium, and 80 μL of cell suspension was added to a 96-well plate, such that plating densities of cells of HCC-827, Ba/F3-EGFR-VIII and Ba/F3 EGFR D770_N771insSVD were all 3000 cells/well. The cells of Ba/F3-EGFR-VIII and Ba/F3 EGFR D770_N771insSVD were used directly in the next step (treatment with compound), whereas the HCC-827 needed to be cultured overnight in a 37° C., 5% carbon dioxide gas incubator to adhere to the wall, and then treated with compounds. • 3. 20 μL of compound solution was added to each well of the 96-well plate that had been inoculated with cells. The highest concentration of the assayed compound was 10 μM, 4-fold serial dilution, a total of 9 concentrations, and duplicate wells. A control group without compound was also set up. • 4. The cells were cultured for another 72 hours, and then cell viability was detected by CTG assay kit. Signal values were read with a multifunctional plate reader (Perkin Elmer). GraphPad Prism software was used to create a dose-response curve and IC50 was calculated.

EGFR^WT kinase = target: T1, EGFR^WT kinase (Homo sapiens, UniProt P00533); assay: EGFR^WT kinase assay (ULight peptide / Eu-PT66 antibody detection); format: biochemical
T1 construct: purchased Carna Biosciences 08-115
From the text: Reagents and consumables: ULight™-labeled Ploy GT Peptide (Perkin Elmer, Cat. No. TRF-0100-M); ULight™-labeled JAK-1 (Try1023) Peptide (Perkin Elmer, Cat. No. TRF-0121-M); Eu-W1024-labeled Anti-Phosphotyrosine Antibody (PT66) (Perkin Elmer, Cat. No. AD0068); 10×Detection Buffer (Perkin Elmer, Cat. No. CR97-100); HER2 Kinase (Carna Biosciences, Cat. No. 08-016); EGFR kinase (Carna Biosciences, Cat. No. 08-115); HEPES (GIBCO, Cat. No. 15630-080); EGTA (Sigma, Cat. No. 03777-10G); EDTA (Sigma, Cat. No. EDS-100G); MgCl2 (Sigma, Cat. No. 63069-100ML); DTT (Sigma, Cat. No. 43816-10ML); Tween-20 (Sigma, Cat. No. P7949-100ML); DMSO (Life Science, Cat. No. 0231-500ML); 384-well plates (Perkin Elmer, Cat. No. 607290); multifunctional plate reader (Perkin Elmer, Cat. No. Envision)
Preparation of compound solution: The assay compound was dissolved in DMSO to form a 10 mM stock solution. Prior to use, the compound was diluted to 0.25 mM in DMSO (100 times the final concentration of the diluent) and then subjected to a 3-fold concentration gradient dilution to obtain a total of 11 concentrations. The solution was diluted with buffer to a diluent with 4× the final concentration when the drug was added.
EGFR^WT kinase assay: buffer was prepared, and 3.48 nM 4× EGFR kinase solution, 600 μM 4× ATP solution, and 400 nM 4×ULight™-labeled JAK-1 (Try1023) Peptide substrate solution was prepared using the buffer. After the preparation was completed, the enzyme was mixed with different concentrations of compounds pre-prepared by dilution, and the mixture was left to stand at room temperature for 5 min. Each concentration was performed in duplicate. The corresponding substrate and ATP were added and the mixture was reacted at room temperature for 120 minutes (with negative and positive controls). After completion of the reaction, PT66 detection antibody was added. The mixture was incubated at room temperature for 60 minutes, and then detected by Envision.
Data Calculation: the reading of well and inhibition rate were calculated using Excel, wherein reading of well=10000*(well EU665 value)/(well EU615 value), and inhibition rate=[(reading of positive control well−reading of assay well)/(reading of positive control well−reading of negative control well)]*100%. Compound concentrations and corresponding inhibition rates were input into GraphPad Prism for processing to calculate IC50 values.

T1 sequence (P00533 25-1210): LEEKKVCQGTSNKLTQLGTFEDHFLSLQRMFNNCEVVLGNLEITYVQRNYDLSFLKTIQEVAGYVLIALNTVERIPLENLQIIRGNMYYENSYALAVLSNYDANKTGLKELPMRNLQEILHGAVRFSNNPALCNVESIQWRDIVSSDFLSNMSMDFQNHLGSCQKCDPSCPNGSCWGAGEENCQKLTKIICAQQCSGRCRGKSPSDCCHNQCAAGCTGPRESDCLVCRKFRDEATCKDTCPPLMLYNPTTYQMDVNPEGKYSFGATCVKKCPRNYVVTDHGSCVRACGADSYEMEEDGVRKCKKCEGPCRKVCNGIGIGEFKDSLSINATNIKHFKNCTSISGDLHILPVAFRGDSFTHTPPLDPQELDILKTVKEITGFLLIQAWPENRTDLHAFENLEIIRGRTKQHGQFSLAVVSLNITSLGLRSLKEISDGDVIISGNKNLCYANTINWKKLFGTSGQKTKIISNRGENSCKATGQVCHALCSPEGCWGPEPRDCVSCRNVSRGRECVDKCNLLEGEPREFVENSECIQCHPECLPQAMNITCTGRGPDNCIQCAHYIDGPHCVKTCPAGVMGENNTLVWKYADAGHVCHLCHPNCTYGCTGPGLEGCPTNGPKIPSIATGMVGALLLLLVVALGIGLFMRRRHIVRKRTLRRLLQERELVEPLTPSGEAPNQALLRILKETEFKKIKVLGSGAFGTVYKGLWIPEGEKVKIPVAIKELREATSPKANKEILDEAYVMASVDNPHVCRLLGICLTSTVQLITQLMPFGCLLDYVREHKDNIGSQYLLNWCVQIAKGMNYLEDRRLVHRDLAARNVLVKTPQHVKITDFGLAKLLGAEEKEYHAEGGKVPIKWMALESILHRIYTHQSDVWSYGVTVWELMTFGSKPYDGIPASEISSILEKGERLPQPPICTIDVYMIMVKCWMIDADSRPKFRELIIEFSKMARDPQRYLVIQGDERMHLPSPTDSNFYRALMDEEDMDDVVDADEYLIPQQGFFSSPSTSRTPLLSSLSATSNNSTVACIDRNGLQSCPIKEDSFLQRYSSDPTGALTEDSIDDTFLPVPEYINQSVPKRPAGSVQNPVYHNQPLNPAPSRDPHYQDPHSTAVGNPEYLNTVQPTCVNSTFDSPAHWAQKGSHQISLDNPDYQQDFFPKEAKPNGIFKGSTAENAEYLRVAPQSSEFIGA

IC50 (HCC-827 cells): ≤ 5 nM
IC50 (EGFR^WT kinase): ≤ 1 nM
SMILES: COc1c(NC(=O)/C=C/CN(C)C)ccc2ncnc(Nc3cccc(Cl)c3F)c12 [Example 1, (E)-N-(4-((3-chloro-2-fluorophenyl)amino)-5-methoxyquinazolin-6-yl)-4-(dimethylamino)but-2-enamide]
